Experimental data from patent US11576979B2, “Pyrrolobenzodiazepine prodrugs and antibody conjugates thereof” (GENENTECH, INC., priority 2016, dated 2023).

Experiments:
[1] = GSH adduct formation and stability of quinones; type: physicochemical; settings: 15 mM GSH; for % Rem. (percent remaining after 3 hours): 25 uM, pH 7.0, 37 C; for Degr (degradation) / GSH Adduct: 3 hours
Protocol: For degradation analysis, the compounds were incubated at 25 μM with 15 mM GSH in 200 mM Tris buffer pH 7.0 containing 5% methanol at 37° C. for 3 hours. The control incubations were conducted without GSH. The samples were analyzed by LC/MS on Sciex TripleTOF 5600 on a Hypersil Gold C18 column (100×2.1, 1.9 μM, Thermo Scientific). The column was eluted by a gradient of buffer A (0.1% formic acid in 10 mM ammonium acetate) to buffer B (0.1% formic acid in 10 mM ammonium acetate in 90% acetonitrile), 5% B 0-0.5 min, 5-25% B 0.5-8 min, 25-75% B 8-13 min, and 75-95% B 13-13.5 min, 95% B 13.5-14.5 min, 95-5% B 14.5-15 min at 0.4 mL/min. All products were separated and characterized by LC/MS/MS in a positive ESI ion mode. Full scan accurate mass peak areas were used to estimate relative abundance of each component.

[2] = target: T1, DT Diaphorase (Homo sapiens, UniProt P15559); assay: in vitro DT diaphorase activated drug release assay (NADPH depletion); type: biochemical; settings: 90 min
T1 construct: purchased Sigma D1315
T1 sequence (P15559 whole entry): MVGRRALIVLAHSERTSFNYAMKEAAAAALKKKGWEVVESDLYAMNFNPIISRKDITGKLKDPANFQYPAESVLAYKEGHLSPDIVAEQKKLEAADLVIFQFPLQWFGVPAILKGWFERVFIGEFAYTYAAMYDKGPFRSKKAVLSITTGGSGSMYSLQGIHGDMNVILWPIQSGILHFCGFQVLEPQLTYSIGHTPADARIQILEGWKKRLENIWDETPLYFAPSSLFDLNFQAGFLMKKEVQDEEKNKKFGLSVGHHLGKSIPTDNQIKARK
Protocol: An in vitro DT diaphorase activated drug release assay was used to measure NADPH depletion. DT diaphorase activated release of Norfloxacin and Payload (PBD) was measured by the in vitro depletion of NADPH. The assay method was modified from the absorbance measurement of NADPH at A340 (Osman et. al, Chemico-Biological Interactions 147 (2004) 99-108) due to the interference of compounds. The depletion of NADPH was measured by monitoring the decrease of fluorescence intensity of NADPH at 480 nm after being excited at […]. […] Prior to assay, dilute the stock to 1 mM as the 5× working solution; (5) DT Diaphorase specific Inhibitor: prepare 40 mM stock of Dicumarol (Sigma, Cat #M1390-5G, MW=336.29) in 0.13 N NaOH, stored at 4° C. Dilute the stock to 250 uM as the 5× working solution; (6) Compounds: dilute the Norfloxacin and PBD conjugated compounds in assay buffer to 250 uM as the 5× working solution; and (7) 384 well black plate with clear bottom. For the assay procedure: (1) The reaction mix containing 0.5 uM DT-D, 50 uM compound, […] NADPH was set up in a 384 well plate at 50 ul/well. For the control with DT Diaphorase inhibitor, Dicumarol was added in the reaction mix at final 50 uM for each compound. Reaction mix containing NADPH and compound only was also added as the baseline controls. The DT Diaphorase was added in the last step; and (2) The reaction mixes were incubated at room temperature for 5, 30, 90 min. The fluorescence intensity (RFU) of DNAPH was recorded on M1000 plate reader (Tecan) with excitation at 340 nm and emission at 480 nm. For data analysis, data was analyzed and plotted using Prism GraphPad 6. The depletion of NADPH was calculated by the formula below at reaction time point at 90 min wherein: % NADPH depletion=[…].

[3] = test system: KPL-4; assay: CELLTITER GLO cell proliferation assay (Example 6); type: cell-based; settings: KPL4, read-out: IC50 potency KPL-4, Table 4; data in parenthesis = repeat evaluations
Protocol: (§1) The toxicity of PBD monomer disulfide prodrugs and diaphorase prodrugs were evaluated against KPL-4, WSU-DLCL2, HCT-116, HCC1395 and Jurkat cell cultures. […] KPL-4 cells further have a high expression of DTD on the order of about 839 nRPKM (where nRPKM refers to normalized reads per Kb of transcript length per million mapped read).
(§2) Potency of the disulfide and DT-diaphorase prodrugs was measured by a cell proliferation assay employing the following protocol (CELLTITER GLO™ Luminescent Cell Viability Assay, Promega Corp.). First, an aliquot of 40 ul of cell culture containing about 8000 cells of WSU-DLCL2 cells (low NQO1 gene and GSH level), 4000 cells of KPL-4 (high NQO1 gene and GSH level), HCT-116 cells, HCC1395 cells or Jurkat cells in RPMI-1640 culture medium (supplemented with 10% fetal bovine serum, 2 mM glutamine, 50 uM cystine, and 0.015 g/L L-methionine) was deposited in each well of a 384-well flat clear bottom white polystyrene tissue culture-treated microplates (Corning, N.Y.). Second, control wells were prepared containing medium with and without cells. Third, compounds with and without disulfide or DT-diaphorase prodrugs (n=3) were added to the experimental wells using ECHO acoustic liquid handling technology (Labcyte Inc, Sunnyvale, Calif.) to create a 10-point dose-response curve in triplicate with 1:3× serial dilution. Fourth, cells were cultured in a humidified incubator set at 37° C. and maintaining an atmosphere of 5% CO2. Fifth, the plates were equilibrated to room temperature for approximately 30 minutes. Sixth, a volume of CELLTITER GLO™ Reagent equal to the volume of cell culture medium present in each well was added. Seventh, the contents were mixed for 10 minutes on an orbital shaker in the dark to induce cell lysis. Eighth, the plate was incubated at room temperature for 30 minutes to stabilize the luminescence signal. Ninth, luminescence was recorded and reported in graphs as % activity where RLU (relative luminescence units) was normalized to controls (no compound control minus no cell control). Tenth, data was plotted as individual points for each replicate (n=3) for each antibody as the mean of luminescence for each set of replicates, with standard deviation error bars.

[4] = test system: WSU-DLCL2; assay: CELLTITER GLO cell proliferation assay (Example 6); type: cell-based; settings: Homo sapiens, WSUDLCL2, read-out: IC50 potency WSU-DLCL2, Table 4; data in parenthesis = repeat evaluations
Protocol: as §1, §2

[5] = Disulfide cleavage by cysteine, LC/MS; type: physicochemical; settings: 15 uM compound, 0.2 mM cysteine, pH 7.0, 37 C
Protocol: (§3) For disulfide cleavage determination, the compounds were incubated at 15 μM with 0.2 mM cysteine or 4 mM GSH in 100 mM Tris buffer pH 7.0 containing 5% methanol at 37° C. Aliquots were taken at specified time points and the samples were analyzed by LC/MS on Sciex TripleTOF 5600 on a Hypersil Gold C18 column (100×2.1, 1.9 Thermo Scientific). The column was eluted by a gradient of buffer A (0.1% formic acid in 10 mM ammonium acetate) to buffer B (0.1% formic acid in 10 mM ammonium acetate in 90% acetonitrile), 5% B 0-0.5 min, 5-25% B 0.5-8 min, 25-75% B 8-13 min, and 75-95% B 13-13.5 min, 95% B 13.5-14.5 min, 95-5% B 14.5-15 min at 0.4 mL/min. All products were separated and characterized by LC/MS/MS in a positive ESI ion mode. All analytes had the protonated molecular MH+ as the major species with little source fragmentation. Full scan accurate mass peak areas were used to estimate relative abundance of each component.

[6] = Disulfide cleavage by glutathione (GSH), LC/MS; type: physicochemical; settings: 15 uM compound, 4 mM GSH, pH 7.0, 37 C
Protocol: as §3

[7] = test system: Igrov-1; assay: CellTiter-Glo toxicity, 4 days (Example 9); type: cell-based; settings: Homo sapiens, IGROV-1, 96 h, 4 days of drug incubation; Table 7A
Protocol: (§4) The toxicity of various PBD monomer disulfide prodrugs and PBD dimer disulfide prodrugs was evaluated on UACC-257, Igrov-1 and A2058 cell lines. Cells were seeded in 384-well plate and treated with drug 24 hours later. After 4 days of drug incubation, the cell viability was determined using Promega CellTiter-Glo luminescent reagent, which measures ATP level (an indirect measure of cell number). The luminescent intensity was measured on PerkinElmer Envision reader. The relative cell viability was calculated by normalizing to non-drug treatment control and was graphed using KleidaGraph software package. IC50 value was determined as the concentration to obtain 50% of the maximum cell killing.

[8] = test system: UACC-257; assay: CellTiter-Glo toxicity, 4 days (Example 9); type: cell-based; settings: Homo sapiens, UACC-257, 96 h, 4 days of drug incubation; Table 7A
Protocol: as §4

[9] = test system: A2058; assay: CellTiter-Glo toxicity, 4 days (Example 9); type: cell-based; settings: Homo sapiens, A2058, 96 h, 4 days of drug incubation; Table 7A
Protocol: as §4

Compound	% Rem. (percent remaining after 3 hours) [1]	NADPH Dep. (NADPH depletion at 90 minutes) [2]	Degr (degradation) [1]	further results
CCn1cc(C(=O)O)c(=O)c2cc(F)c(N3CCN(C(=O)OCc4c(C(=O)OC)c5c(n4C)C(=O)C=C(OC)C5=O)CC3)cc21	100%	17.4%	–	–
CCn1cc(C(=O)O)c(=O)c2cc(F)c(N3CCN(C(=O)OCc4c(C=O)c5c(n4C)C(=O)C=C(OC)C5=O)CC3)cc21	82.1%	91.5%	yes	–
CCn1cc(C(=O)O)c(=O)c2cc(F)c(N3CCN(C(=O)OCc4c(C)c5c(n4C)C(=O)C=C(OC)C5=O)CC3)cc21	55.5%	26.1%	yes	–
COC1=CC(=O)c2c(c(CO)c(C)n2C)C1=O	87%	74.83%	–	GSH Adduct [1]: yes
CCn1cc(C(=O)O)c(=O)c2cc(F)c(N3CCN(C(=O)OCc4cn(C)c5c4C(=O)C(OC)=CC5=O)CC3)cc21	–	85.2%	–	–
COC1=CC(=O)c2c(c(C=O)c(CO)n2C)C1=O [2-(hydroxymethyl)-5-methoxy-1-methyl-4,7-dioxo-4,7-dihydro-1H-indole-3-carbaldehyde]	0%	96.92%	yes	–
COC1=C(C)C(=O)c2c(c(C)c(CO)n2C)C1=O	92.5%	None	–	GSH Adduct [1]: yes
CCn1cc(C(=O)O)c(=O)c2cc(F)c(N3CCN(C(=O)OCc4c5c(n(C)c4C)C(=O)C=C(OC)C5=O)CC3)cc21	50%	2.01%	yes	–
COC(=O)c1c2c(n(C)c1CO)C(=O)C=C(OC)C2=O [methyl 2-(hydroxymethyl)-5-methoxy-1-methyl-4,7-dioxo-4,7-dihydro-1H-indole-3-carboxylate]	100%	None	–	–
C=C1C[C@H]2C(O)N(C(=O)OCc3ccc(NC(=O)OCc4cc5c(n4C)C(=O)C=C(OC)C5=O)cc3)c3cc(OC)c(OC)cc3C(=O)N2C1 (some centres unmarked) [PBD monomer diaphorase prodrug 3]	–	>90% at	–	IC50 [3]: 0.351 µM; IC50 [4]: 0.443 µM
COC1=CC(=O)c2c(c(CO)cn2C)C1=O	90%	95.99%	–	GSH Adduct [1]: yes
C=C1C[C@H]2C(O)N(C(=O)OCC3(SSCC)CCCC3)c3cc(OC)c(OC)cc3C(=O)N2C1 (some centres unmarked) [PBD monomer disulfide prodrug 5]	–	–	–	IC50 [3]: 1.06 µM; IC50 [4]: 1.35 µM; % Remaining at 24 h by Cys [5]: 90.9%; % Remaining at 24 h by GSH [6]: 65.9%; IC50 [7]: 0.765 µM; IC50 [8]: 0.892 µM; IC50 [9]: 0.395 µM
CCn1cc(C(=O)O)c(=O)c2cc(F)c(N3CCN(C(=O)OCc4cc5c(n4C)C(=O)C=C(OC)C5=O)CC3)cc21	37.6%	53.23%	yes	–
C=C1C[C@H]2C(O)N(C(=O)OCc3ccccc3)c3cc(OC)c(OC)cc3C(=O)N2C1 (some centres unmarked) [PBD monomer control 2, reference compound]	–	–	–	IC50 [3]: > 10 µM; IC50 [4]: > 10 µM; % Remaining at 24 h by Cys [5]: 100%; % Remaining at 24 h by GSH [6]: 100%; IC50 [7]: > 20 µM; IC50 [8]: > 20 µM; IC50 [9]: > 20 µM
C=C1C[C@H]2C(O)N(C(=O)OCc3ccc(SSC(C)(C)C)cc3)c3cc(OC)c(OC)cc3C(=O)N2C1 (some centres unmarked) [PBD monomer disulfide prodrug 6]	–	–	–	IC50 [3]: 0.806 µM; IC50 [4]: 2.81 µM; % Remaining at 24 h by Cys [5]: 85.4%; % Remaining at 24 h by GSH [6]: 2.1%; IC50 [7]: 3.26 µM; IC50 [8]: 0.497 µM; IC50 [9]: 0.567 µM
CCn1cc(C(=O)O)c(=O)c2cc(F)c(N3CCN(C(=O)OCc4ccc(NC(=O)OCc5cc6c(n5C)C(=O)C=C(OC)C6=O)cc4)CC3)cc21	63%	94/0	yes	–
